Results: US5852008A, “Heteroatom substituted benzoyl derivatives that enhance synaptic response mediated by receptors” (The Regents of the University of California, priority 1995, dated 1998)
Where two headings read alike, the source gives them in different places.

Tests used:
AMPA receptors = experiment: Field EPSP in rat hippocampal slices (field CA1): amplitude and area of AMPA receptor-mediated synaptic responses; type: cell-based, rat (Sprague-Dawley)
Protocol: The physiological effects of invention compounds can be tested in vitro with slices of rat hippocampus as follows. Excitatory responses (field EPSPs) are measured in hippocampal slices which are maintained in a recording chamber continuously perfused with artificial cerebrospinal fluid (ACSF).
To conduct these tests, the hippocampus was removed from anesthetized, 2 month old Sprague-Dawley rats and in vitro slices (400 micrometers thick) were prepared and maintained in an interface chamber at 35° C. using conventional techniques [see, for example, Dunwiddie and Lynch, J. Physiol. Vol. 276: 353-367 (1978)]. The chamber was constantly perfused at 0.5 ml/min with ACSF containing (in mM): NaCl 124, KCl 3, KH2 PO4 1.25, MgSO4 2.5, CaCl2 3.4, NaHCO3 26, glucose 10 and L-ascorbate 2. A bipolar nichrome stimulating electrode was positioned in the dendritic layer (stratum radiatum) of the hippocampal subfield CA1 close to the border of subfield CA3.
Current pulses (0.1 msec) through the stimulating electrode activate a population of the Schaffer-commissural (SC) fibers which arise from neurons in the subdivision CA3 and terminate in synapses on the dendrites of CA1 neurons. Activation of these synapses causes them to release the transmitter glutamate. Glutamate binds to the postsynaptic AMPA receptors which then transiently open an associated ion channel and permit a sodium current to enter the postsynaptic cell. This current results in a voltage in the extracellular space (the field excitatory postsynaptic potential or field "EPSP") which is recorded by a high impedance recording electrode positioned in the middle of the stratum radiatum of CA1.
For the experiments summarized in FIG. 1, the intensity of the stimulation current was adjusted to produce half-maximal EPSPs (typically about 1.5-2.0 mV). Paired stimulation pulses were given every 40 sec with an interpulse interval of 200 msec (see below). The field EPSPs of the second response were digitized and analyzed to determine amplitude, half-width, and response area. If the responses were stable for 15-30 minutes (baseline), test compounds were added to the perfusion lines for a period of about 15 minutes. The perfusion was then changed back to regular ACSF.
Paired-pulse stimulation was used since stimulation of the SC fibers, in part, activates interneurons which generate an inhibitory postsynaptic potential (IPSP) in the pyramidal cells of CA1. This feed forward IPSP typically sets in after the EPSP reaches its peak. It accelerates the repolarization and shortens the decay phase of the EPSP, and thus could partially mask the effects of the test compounds. One of the relevant features of the feed-forward IPSP is that it can not be reactivated for several hundred milliseconds following a stimulation pulse. This phenomenon can be employed to advantage to eliminate IPSP by delivering paired pulses separated by 200 milliseconds and using the second ("primed") response for data analysis.
These effects are mirrored in the field EPSP, as reported in the literature [see, for example, Staubli et al., Psychobiology supra; Xiao et al., Hippocampus supra; Staubli et al., Hippocampus Vol. 2: 49-58 (1992)].
The variables set forth in the table refer to the following generic structure: [drawing 33]

AMPA receptor = conditions: cited from earlier work
[1] = PET biodistribution of 11C-labelled Invention Compound II after i.p. injection
Source text: To test the ability of invention compounds to pass the blood-brain barrier, Invention Compound II was labelled with carbon-11.
Radiolabelled Invention Compound II (see the table above) is synthesized by the following scheme (wherein the numbers in parenthesis refer to the quantity of reagent used, in millimoles): [drawing 34] wherein Ar is aryl (such as methylenedioxybenzene), Im is imidazole (thus, ImHCl is imidazole hydrochloride), and R is an alkyl or alkylene radical (so that R2 NH is, for example, piperidine). ^11 C-labelled CO2 is produced by cyclotron irradiation and subsequently used in the above-described synthetic scheme. The time to complete the synthesis is about […] ([…] the half-life of carbon-11). After purification of [^11 C]II on C18 Sep Pak, 260 μCi was diluted with 20 mg of nonradioactive II as carrier in a 1-ml solution of 23% propylene glycol and 10% ethanol in physiologically-buffered saline in order to simulate the dosage of 100 mg/Kg that was used in behavioral studies. The final 1 ml of solution was administered to a 200 g rat under halothane anesthesia (1.4-1.7% in oxygen) by intraperitoneal (i.p.) injection.
Biodistribution of the radiotracer in the body of the rat was monitored by a positron camera (Scanditronix PC2048-15B) and the time-activity curves were constructed using a Vax 3500 (Digital Equipment Corporation) and shown in FIG. 5.

[2] = percent increase in field EPSP amplitude; log dose/response; maximal response of 85% increase assumed where solubility was limiting; read-out: EC50 (field EPSP amplitude)
[3] = after i.p. injection, 100 mg/kg
[4] = read-out: EC50 (field EPSP amplitude); percent increase in field EPSP amplitude; log dose/response; maximal response of 85% increase assumed where solubility was limiting

O=C(c1ccc2ocnc2c1)N1CC=CCC1 [Invention Compound IX]
EC50 (AMPA receptors; [2]): 4 mM

COc1ccc(C(=O)NCCCC(=O)O)cc1 [anisoyl-GABA]
aniracetam-like effects (AMPA receptor; metabolite of aniracetam): no aniracetam-like effects

O=C(c1ccc2[nH]cnc2c1)N1CC=CCC1 [Invention Compound XII]
EC50 (AMPA receptors; [2]): 5 mM

O=C(c1ccc2c(c1)OCO2)N1CCCCC1 [Invention Compound II, 1-(1,3-benzodioxol-5-ylcarbonyl)-piperidine]
EC50 (AMPA receptors; [2]): 1.5 mM | time of peak uptake in brain [1, 3]: about 5 minutes | time of peak uptake in heart [1, 3]: about 5 minutes | time of peak uptake in liver [1, 3]: about 3 minutes | time of peak uptake in soft tissues [1, 3]: about 17 minutes | passage through the blood-brain barrier ([1]; i.p.): passes freely through the blood-brain barrier | brain distribution relative to head excluding the cranial cavity ([1]; rat, in vivo, ip): approximately equal to that of the head excluding the cranial cavity | decline of levels in liver after peak ([1]; rat, in vivo, ip): declined markedly for the first 5 minutes after peaking and then more gradually | decline of levels in the other three tissues (heart, brain, soft tissue) after peak ([1]; rat, in vivo, ip): declined very gradually after peaking | entry into and residence in brain (target tissue) ([1]; rat, in vivo, ip): relatively rapid and stayed in the brain for an extended period | order of tissue uptake ([1]; rat, in vivo, ip): liver showed the maximum uptake, followed by heart

O=C1CCCN1C(=O)c1ccc2c(c1)OCO2 [Invention Compound XVI]
EC50 (AMPA receptors; [4]): 2 mM

O=C(c1ccc2ncoc2c1)N1CC=CCC1 [Invention Compound XI]
EC50 (AMPA receptors; [2]): 3 mM

O=C(c1ccc2c(c1)OCO2)N1CCCCCC1 [Invention Compound VII, 1-(1,3-benzodioxol-5-ylcarbonyl)-hexamethyleneimine]
EC50 (AMPA receptors; [2]): 4 mM

O=C(c1ccc2c(c1)OCO2)N1CCCC1 [Invention Compound VI, 1(1,3-Benzodioxol-5-ylcarbonyl)-pyrrolidine]
EC50 (AMPA receptors; [2]): 1.2 mM

CC1Oc2ccc(C(=O)N3CCCCC3)cc2O1 (racemic) [Invention Compound V, (R,S)-1-(2-methyl-1,3-benzodioxol-5-ylcarbonyl)-piperidine]
EC50 (AMPA receptors; [2]): 1.1 mM

O=C(c1ccc2c(c1)OCCO2)N1CC=CC1 [Invention Compound VIII]
EC50 (AMPA receptors; [2]): 3 mM

O=C(c1ccc2nccnc2c1)N1CCCCC1 [Invention Compound XIV, 1-(quinoxalin-6-ylcarbonyl)-piperidine]
EC50 (AMPA receptors; [2]): 0.3 mM

COc1ccc(C(=O)N2CC[C@@H](O)C2=O)cc1 [(R)-1-p-anisoyl-3-hydroxy-2-pyrrolidinone]
facilitation of AMPA receptor mediated responses (AMPA receptor; nootropics tested in slices): facilitate AMPA receptor mediated responses

O=C(c1ccc2c(c1)OCO2)N1CC=CCC1 [Invention Compound III, 1-(1,3-benzodioxol-5-ylcarbonyl)-1,2,3,6-tetrahydropyridine]
EC50 (AMPA receptors; [2]): 0.8 mM

O=C1CCCC1C(=O)c1ccc2c(c1)OCO2 (centres unmarked) [Invention Compound IV]
EC50 (AMPA receptors; [4]): 0.9 mM

CN(C)c1ccc(C(=O)N2CC=CCC2)cc1 [Invention Compound XV, N-(4-dimethylamino)benzoyl-1,2,3,6-tetrahydropyridine]
EC50 (AMPA receptors; [2]): 1.7 mM

O=C(c1ccc2nccnc2c1)N1CC=CCC1 [Invention Compound XIII, 1-(quinoxalin-6-ylcarbonyl)-1,2,3,6-tetrahydropyridine]
EC50 (AMPA receptors; [2]): 0.05 mM
